Source: US20130203846A1, “PHENYL CARBAMATE COMPOUNDS FOR USE IN PREVENTING OR TREATING ALS” (Bio-Pharm Solutions Co., Ltd., priority 2011, published 2013)
Marks after values point to notes of the source that are not given here.

Key:
Format in all cases: in vivo, mouse
[1] = system: male ICR mice; assay: MES (maximal electroshock seizure) test, mice; settings: for ED50: Mus musculus, oral, at peak time
Method: The obtained results are shown as mean±sem. The difference between the groups was statistically analyzed by ANOVA, and then, further examined by Dunnett's test or Bonferroni test. If p is less than 0.05, it was determined that the difference between the groups had statistical significance.

[2] = system: mice expressing mutated human SOD1-G93A transgene; assay: Body weight of ALS transgenic mice; settings: TG G93A SOD1 mice; 3, 10, 50 mg/kg p.o. once a day; compared with WT group
Excerpt: (§1) Altogether 80 male and female mice expressing mutated human SOD1-G93A transgene (heterozygous TgN-SOD1-G93A-1Gur; Gurney et al. (1994), Science 264, 1772. 1775) and 15 of their wild type littermates were used for the experiments. […] PCR was used to genotype the mice before the start of the experiments. […]
Since weight loss has proven to correlate well with disease development and is easily scored co-jointly with disease stage, the mice were weighted once-a-week at the age of 60 days to 90 days and three times a week after they reach the age of 91 days (13 weeks).

[3] = system: mice expressing mutated human SOD1-G93A transgene; assay: Open field test of ALS transgenic mice; settings: TG G93A SOD1 mice; 3, 10, 50 mg/kg p.o. once a day; baseline, day 90, day 110
Method: as §1
Open field test measurements were performed before the dosing is stated (baseline) and around day 90 (13th age week) and day 110 (16th age week). […] Mice were placed in the center of the chamber and their behaviors were recorded for 10 minutes. The following parameters were recorded: distance moved.

[4] = system: mice expressing mutated human SOD1-G93A transgene; assay: Clinical scoring and disease onset of ALS transgenic mice; settings: TG G93A SOD1 mice
Excerpt: Altogether 80 male and female mice expressing mutated human SOD1-G93A transgene (heterozygous TgN-SOD1-G93A-1Gur; Gurney et al. (1994), Science 264, 1772. 1775) and 15 of their wild type littermates were used for the experiments. […] PCR was used to genotype the mice before the start of the experiments.
The animals were grouped as follows: • <Non-transgenic male mice> • Group 1: 15 WT mice treated with vehicle (30% (w/v) polyethyleneclycol 400 (PEG400), once a day, p.o.) starting at 60 days of age and continuing until end-point • <Transgenic G93A SOD1 male mice: ALS-transgenic mice> • Group 2: 20 transgenic mice treated with vehicle (30% (w/v) polyethyleneclycol 400 (PEG400), once a day, p.o.) staring at 60 days of age and continuing until end-point • Group 3: 20 transgenic mice treated with a drug (Compound 1) at dose of 3 mg/kg (once a day, p.o.) staring at 60 days of age and continuing until end-point • Group 4: 20 transgenic mice treated with Compound 1 at dose of 10 mg/kg (once a day, p.o.) staring at 60 days of age and continuing until end-point • Group 5: 20 transgenic mice treated with Compound 1 at dose of 50 mg/kg (once a day, p.o.) staring at 60 days of age and continuing until end-point
Treatment with drug (Compound 1) was started at the age of 60 days and continued until the mice reached 150 days of age. The drug was administered p.o. once a day between 8-12 am. The drug solubilized in 30% (w/v) polyethyleneclycol 400 (PEG400), and the obtained solution was briefly vortexed and sonicated at RT (room temperature) for 20 minutes. Treatment solution of the drug was prepared fresh every day. […]
The earliest clinical signs were tremor and shaking of their limbs when the mice are suspended briefly in the air by their tails. […] Animals were scored by lifting them gently by the base of their tails and observing them for tremors, stiffness and their ability to extend their limbs. […]
Onset of disease for each mouse was recorded when they reach a disease stage 4.

[5] = system: mice expressing mutated human SOD1-G93A transgene; assay: Survival of ALS transgenic mice; settings: TG G93A SOD1 mice
[6] = system: male mice (ICR); assay: Muscle relaxation: wire hang test; settings: i.p., 100 mg/kg administered
Method: (§2) For testing, male mice (ICR) were purchased from ORIENT BIO INC. (Korea), divided into several groups with 6 mice in each group, and were adapted for 4-5 days. The mice having the weight ranging from 19 g to 26 g were employed for the test. The pharmacological effect of the test compounds on muscle relaxation was evaluated by Rotarod test, grip strength test, and muscular force (wire hang) test. All mice were adapted to the test environment at one hour before starting the tests. The pharmacological effects of all the test compounds were evaluated by administration through peritoneal cavity of the mice (10 ul/g, bw).
This experimentation was conducted using a metal wire of 30 cm in length, which was suspended between two pillars at a height of about 40 cm from the bottom covered with a soft pad. […] Each mouse was made to grip the wire using two forelimbs, and the elapse time before the mouse fell off from the wire to the pad on the bottom was recorded in seconds. Each mouse was given 5 opportunities for this test at an interval of 2 minutes period. The highest 3 records among the test opportunities were selected and the mean value was used as the test result. […]
(§3) The results of muscle relaxation activity of the phenyl carbamate compounds measured in above Experimental Examples 1.2 to 1.4 are shown in following Table 3.

[7] = system: male mice (ICR); assay: Muscle relaxation: grip strength test (forelimbs); settings: i.p., 120 mg/kg administered
Method: as §2
A grip strength test using the test animals' forelimbs was performed using an instrument equipped with triangle ring and designed so as to easily grip with the forelimbs of experimental animals, manufactured from Ugo Basile Inc. (Ugo Basile, Mode147106, Italy). […] The mouse was made to grip the rod with its forelimbs, and its tail was pulled, where the force at which the mouse detached from the rod was recorded. […] This experimentation was conducted according to the method described in the reference, ‘Nevins et al. (1993) Quantitative grip strength assessment as a means of evaluating muscle relaxation in mice. […]
as §3

[8] = group treated with 10 mg/kg p.o. once a day

C[C@@H](OC(N)=O)[C@H](O)c1c(Cl)cccc1Cl [Compound 46, 1-(2,6-dichlorophenyl)-(R)-1-hydroxypropyl-(R)-2-carbamate]
MES test (po) Peak Time [1]: 1 h | ED50 [1]: 35.2 mg/kg

CC(C)[C@H](OC(N)=O)[C@@H](O)c1c(Cl)cccc1Cl [Compound 42, 1-(2,6-dichlorophenyl)-(S)-1-hydroxy-3-methyl-butyl-(S)-2-carbamate]
MES test (po) Peak Time [1]: 0.5 h | ED50 [1]: 35.2 mg/kg

C[C@H](OC(N)=O)[C@@H](O)c1ccccc1Cl [Compound 1, 1-(2-chlorophenyl)-(S)-1-hydroxypropyl-(S)-2-carbamate]
body weight of each group (FIG. 3) [2]: body weight loss compared with WT group was decrease by administration of the drug in the dose-dependent manner | MES test (po) Peak Time [1]: 2 h | distance moved, open field test (FIG. 5) [3]: some differences between treatments group of transgenic mice | rate (%) of survivor according to disease onset time (FIG. 2) ([4]; 3, 10, 50 mg/kg p.o. once a day, onset = disease stage 4): delay the disease onset | clinical score of each group (FIG. 4) ([4]; 3, 10, 50 mg/kg p.o. once a day, scale 1 to 5, compared to TG vehicle group): clinical scores were increased by administration of the drug in the dose-dependent manner | effect to delay the disease onset (FIG. 2) [4, 8]: especially remarkable | rate (%) of survivor according to survival time (FIG. 1) ([5]; 3, 10, 50 mg/kg p.o. once a day from 60 days of age, early stage of ALS): survival time is extended | effect to increase the survival rate at early stage of ALS (FIG. 1) [5, 8]: especially remarkable

CC(OC(N)=O)C(O)c1ccccc1Cl (racemic) [Compound 3, 1-(2-chlorophenyl)-1-hydroxypropyl-2-carbamate]
MES test (po) Peak Time [1]: 2 h

CC(C)[C@H](OC(N)=O)[C@@H](O)c1ccccc1Cl [Compound 9, 1-(2-chlorophenyl)-(S)-1-hydroxy-3-methyl-butyl-(S)-2-carbamate]
MES test (po) Peak Time [1]: 0.5 h | ED50 [1]: 67.1 mg/kg

C[C@H](OC(N)=O)[C@@H](O)c1c(Cl)cccc1Cl [Compound 37, 1-(2,6-dichlorophenyl)-(S)-1-hydroxypropyl-(S)-2-carbamate]
MES test (po) Peak Time [1]: 0.25 h

CC[C@H](OC(N)=O)[C@@H](O)c1c(Cl)cccc1Cl [Compound 40, 1-(2,6-dichlorophenyl)-(S)-1-hydroxybutyl-(S)-2-carbamate]
ED50 [1]: 46.9 mg/kg

C[C@@H](OC(N)=O)[C@H](O)c1ccccc1Cl [Compound 2, 1-(2-chlorophenyl)-(R)-1-hydroxypropyl-(R)-2-carbamate]
MES test (po) Peak Time [1]: 0.25 h

C[C@@H](OC(N)=O)[C@H](O)c1ccccc1F [Compound 64, 1-(2-fluorophenyl)-(R)-1-hydroxypropyl-(R)-2-carbamate]
Wire hang: effect (%) compared to that of control treated with vehicle only [6]: 100 ^a (30.8%) | Grip strength: effect (%) compared to that of control treated with vehicle only [7]: 120 ^a (35.4%)

C[C@H](OC(N)=O)[C@@H](O)c1ccc(Cl)cc1Cl [Compound 36, 1-(2,4-dichlorophenyl)-(S)-1-hydroxypropyl-(S)-2-carbamate]
ED50 [1]: 82.8 mg/kg

C[C@H](OC(N)=O)[C@@H](O)c1cccc(Cl)c1Cl [Compound 38, 1-(2,3-dichlorophenyl)-(S)-1-hydroxypropyl-(S)-2-carbamate]
MES test (po) Peak Time [1]: 2 h | ED50 [1]: 91.4 mg/kg

CC[C@H](OC(N)=O)[C@@H](O)c1ccc(Cl)cc1Cl [Compound 39, 1-(2,4-dichlorophenyl)-(S)-1-hydroxybutyl-(S)-2-carbamate]
MES test (po) Peak Time [1]: 1 h | ED50 [1]: 41.2 mg/kg

C[C@H](OC(N)=O)[C@H](O)c1ccccc1Cl [Compound 5, 1-(2-chlorophenyl)-(R)-1-hydroxypropyl-(S)-2-carbamate]
MES test (po) Peak Time [1]: 0.5 h

CC[C@H](OC(N)=O)[C@@H](O)c1ccccc1Cl [Compound 6, 1-(2-chlorophenyl)-(S)-1-hydroxybutyl-(S)-2-carbamate]
MES test (po) Peak Time [1]: 1 h | ED50 [1]: 22.2 mg/kg
